Reference: patent US5324648A, “Substituted isocoumarins as serine protease inhibitors and anti-inflammatory agents” (Georgia Tech Research Corporation, priority 1992, dated 1994)

Key:
rat granule chymase [1] = test: Inhibition of rat granule chymase; assay type: biochemical; conditions: Table XIV; [I] 0.078 mM; not time dependent
Description: (§1) ^a Inhibition was measured at 0.1M Hepes, 0.5M NaCl, pH 7.5 buffer,
(§2) 10% Me2 SO and 25° C. Suc--Phe--Leu--PheSBzl (0.14 mM) and
(§3) ZGly--ArgSBzl (0.06 mM) were used to measure chymase and tryptase activit

cathepsin G = target: T1, cathepsin G (Homo sapiens, UniProt P08311); test: Inactivation of cathepsin G; assay type: biochemical; conditions: Table XIII; [I] 75-400 μM
T1 construct: from tissue; host or cells: human leukocytes
T1 sequence (P08311 21-255): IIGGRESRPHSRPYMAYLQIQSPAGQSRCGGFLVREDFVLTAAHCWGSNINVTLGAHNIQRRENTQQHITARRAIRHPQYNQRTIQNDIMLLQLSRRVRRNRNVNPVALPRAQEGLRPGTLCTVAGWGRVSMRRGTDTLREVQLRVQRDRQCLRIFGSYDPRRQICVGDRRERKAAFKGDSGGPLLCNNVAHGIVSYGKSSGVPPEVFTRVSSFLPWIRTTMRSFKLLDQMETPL

rat granule tryptase = test: Inhibition of rat granule tryptase; assay type: biochemical; conditions: Table XIV; [I] 0.078 mM
Description: as §1, §2, §3

chymotrypsin [2] = target: T2, chymotrypsin (Bos taurus, UniProt P00766); test: Reactivation of inhibited chymotrypsin; assay type: biochemical, bovine
Description: (§4) ^a Inhibition was performed at 0.1M Hepes, 0.5M NaCl, pH 7.5 buffer,
(§5) 10% Me2 SO and 25° C. Reactivation was carried out in the
presence of 0.36M of NH2 OH, and occurred immediately after the
^b Enzyme activity was measured after two days.

rat granule chymase [3] = test: Reactivation of inhibited rat granule chymase; assay type: biochemical; conditions: [I] 39 μM; +NH2OH 0.36M
Description: as §4, §5
presence of 0.36M of NH2 OH, and occurred immediately after the […]

chymotrypsin [4] = target: T2, chymotrypsin; test: Inactivation of chymotrypsin; assay type: biochemical, bovine; conditions: Table XIII; pH 7.5, 25° C; [I] 20-400 μM; read-out: kobs/[I]

% of inhibition (rat granule chymase [1]): 30-50%
inhibition (cathepsin G): 13%
kobs/[I] (rat granule tryptase): 6 to 12 M⁻¹ s⁻¹
% of Enzyme Activity Reactivated (chymotrypsin [2]; [I] 39 μM, +NH2OH 0.36M): 50%
% of Enzyme Activity Reactivated (chymotrypsin [2]; [I] 39 μM, in buffer, after two days): 6%
% of Enzyme Activity Reactivated (chymotrypsin [2]; [I] 78 μM, +NH2OH 0.36M): 40%
% of Enzyme Activity Reactivated (chymotrypsin [2]; [I] 78 μM, in buffer, after two days): 0%
% of Enzyme Activity Reactivated (rat granule chymase [3]): 30-50%
kinact/KI (chymotrypsin [4]): 1080 M⁻¹ s⁻¹
SMILES: O=C(CCCC[C@@H]1SC[C@@H]2NC(=O)N[C@@H]21)NCCCCCC(=O)Nc1ccc2c(Cl)c(OCCc3ccccc3)oc(=O)c2c1 [7-(6-biotinylaminocaproyl)amino-4-chloro-3-(2-phenylethoxy)isocoumarin]
